# Non-standard residues stand in square brackets, D forms with d. Residues, ends and D or L forms follow the SMILES beside them. No end group written: not given here. pY = N[C@@H](Cc1ccc(OP(=O)(O)O)cc1)C(=O)O
# B1: F3-Q381V: talin F3 domain mutant Q381V (protein)
# chain: GVSFFLVKEKMKGKNKLVPRLLGITKECVMRVDEKTKEVIQEWSLTNIKRWAASPKSFTLDFGDYQDGYYSVVTTEGEQIAQLIAGYIDIILKKKKS
# B2: F3-L325R: talin F3 domain mutant L325R (protein)
# chain: GVSFFLVKEKMKGKNKRVPRLLGITKECVMRVDEKTKEVIQEWSLTNIKRWAASPKSFTLDFGDYQDGYYSVQTTEGEQIAQLIAGYIDIILKKKKS
# B3: talin (W359A): talin F3 domain mutant W359A, inhibits binding of the MD-site of the β3 tail (protein)
# chain: GVSFFLVKEKMKGKNKLVPRLLGITKECVMRVDEKTKEVIQEWSLTNIKRAAASPKSFTLDFGDYQDGYYSVQTTEGEQIAQLIAGYIDIILKKKKS
# What was measured:
# talin F3 = molecular target: T1, talin F3 (Mus musculus, UniProt P26039); assay: 1H-15N HSQC NMR titration of talin F3 with peptides; assay type: binding; details: for perturbation of contact residues in the MP region: mutant chimeric peptides added to wild-type talin F3, MD site binding unchanged
# T1 construct: labeled talin F3 domain was expressed and purified as described previously (de Pereda et al., 2005); made in house
# T1 sequence (P26039 309-405 limits assumed): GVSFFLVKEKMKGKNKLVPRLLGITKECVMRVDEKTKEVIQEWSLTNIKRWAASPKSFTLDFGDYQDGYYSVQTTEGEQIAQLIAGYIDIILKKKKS
# Procedure: (§1) Talin F3 L325R and Q381V mutants were titrated with the original β3/PIPKIγ chimera, while the effect of peptide mutations (F727A and F730A) was assessed using wild-type talin F3.
# We set out to obtain a structural explanation for the unusual ability of the talin PTB domain to activate integrins. An initial exploration of the interactions was carried out by adding various tail-derived β3-integrin peptides to the F3 sub-domain of talin, while monitoring the chemical shift perturbations in ^1H-^15N HSQC NMR spectra. The peptide sequences and the nomenclature used are set out in FIG. 1A. The MP peptide corresponds to the N-terminal region of the cytoplasmic β-tail. A peptide comprised of the β-tail region previously visualized in the crystal structure (Garcia-Alvarez et al., 2003), is denoted MD; this peptide primarily causes chemical shift perturbations in strand S5 (de Pereda et al., 2005).
# (§2) ^1H-^15N-HSQC titrations were performed as previously described (de Pereda et al., 2005). Weighted shifts (Δδ(HN,N)) were calculated using the equation: Δδ(HN,N)=((ΔδHNWHN)^2+(ΔδNWN)^2)^1/2, where WHN and WN are weighting factors for the HN and N shifts respectively (WHN=1, WN=0.154) (Ayed et al., 2001) and Δδ=δbound−δfree. Talin F3 domains in complex with slow-exchanging peptides, as well as mutant F3 domains, were assigned by correlation to the wild-type talin F3 assignments (de Pereda et al., 2005) and confirmed using 3D gradient-enhanced [^1H-^15N]-NOESY-HSQC (τm=100 ms) spectra alone, or in combination with [^1H-^15N]-TOCSY-HSQC (τm=70 ms) spectra. ^13CO, ^13Cα and ^13Cβ shifts were obtained using a series of 2D ^1H-^15N-^13C experiments (Bersch et al., 2003). Bound peptide shifts were obtained using U—^15N,^2H F3 and unlabeled chimeric peptide (1.3:1). Both bound and unbound chimeric peptide shifts were assigned using 2D NOESY, TOCSY and COSY spectra. DOK PTB domain assignments were obtained previously (unpublished).
# [1] = Solubility of peptide at the concentrations used for NMR; assay type: physicochemical
# Source text: NMR studies of the interaction with full-length β3 cytoplasmic tail were more challenging. The off-rates of the complex correspond to an ‘intermediate exchange’ regime, with peaks broadening and disappearing rather than changing position. It was, however, possible to define perturbed residues by plotting the percentage decrease in peak height upon addition of the peptide (FIGS. 1D and 8). The perturbed residues are essentially the sum of those affected by the MD peptide and the MP peptide (FIGS. 1 and 8). The β3 tail/talin F3 interactions can thus be considered in two parts, one corresponding to the previously defined interaction at the MD-site, the other corresponding to the MP-site. […] This, together with exchange broadening of lines, made the β3 tail an unsuitable ligand for studying the structure of the talin-integrin complex by NMR at atomic resolution.
# β3/PIPKIγ chimera = assay: 1H-15N HSQC NMR titration of talin F3 mutants with chimeric peptide; details: talin F3 mutants titrated with the original β3/PIPKIγ chimera; MD site binding unchanged
# Chain of β3/PIPKIγ chimera (as listed by the source, change not shown): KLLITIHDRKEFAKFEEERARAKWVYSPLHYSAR
# Procedure: as §1
# Mutations to the contact residues in talin F3 (L325R, S365D, S379R, or Q381V) were also made to see if they disrupted the F3/MP interaction.
# as §2
# Talin F3 W359A = molecular target: T2, Talin F3 W359A (Mus musculus, UniProt P26039, W359A); assay: Isothermal titration calorimetry, chimeric peptide binding to talin F3 mutant; details: ITC, relative to wild type talin F3
# T2 construct: injected into the cell containing wildtype or mutant talin F3 domain; made in house
# Procedure: Peptide concentrations were typically at 150 to 300 μM while protein concentrations ranged from 25 to 50 μM. For the W359A mutant, the protein concentration was 50 μM and the peptide concentration was 1 mM. Prior to ITC titrations, the peptides and proteins were in buffer consisting of 200 mM Tris, 300 mM NaCl, pH 7.5. All experiments were conducted at 23 degrees Celsius. […] The bottom panel is the binding curve, calculated using the software program Origin.
# Thermodynamic parameters for the binding of WT and mutant talin F3 to the β3 chimeric peptides were measured using isothermal titration calorimetry (Table 2, FIG. 12). In general, mutations that disrupt the MP site, either in the β-tail or talin F3, have relatively little effect on the Kd values (Table 2). This probably arises because of a balance between enthalpy gain and entropy loss, consistent with stabilization of the MP helix on talin binding in the wild-type but not mutant structures. In sharp contrast, the talin (W359A) mutant, which inhibits binding of the MD-site of the β3 tail, reduced the affinity ˜1000 fold, similar to the effect of mutations in the NPxY region of the integrin tail, which abrogate MD binding (Ulmer et al., 2003).
# Isothermal titration calorimetry (ITC) was performed on a VP-ITC calorimeter (Microcal, Northampton, Mass.). […] Experimental data were analyzed using Microcal Origin software.
molecule,measurement,setting,value
CC[C@H](C)[C@H](NC(=O)[C@H](CC(C)C)NC(=O)[C@H](CC(C)C)NC(=O)[C@H](CCCCN)NC(=O)[C@@H](N)CCCCN)C(=O)N[C@H](C(=O)N[C@H](C(=O)N[C@@H](Cc1c[nH]cn1)C(=O)N[C@@H](CC(=O)O)C(=O)N[C@@H](CCCNC(=N)N)C(=O)N[C@@H](CCCCN)C(=O)N[C@@H](CCC(=O)O)C(=O)N[C@@H](Cc1ccccc1)C(=O)N[C@@H](C)C(=O)N[C@@H](CCCCN)C(=O)N[C@@H](C)C(=O)N[C@@H](CCC(=O)O)C(=O)N[C@@H](CCC(=O)O)C(=O)N[C@@H](CCC(=O)O)C(=O)N[C@@H](CCCNC(=N)N)C(=O)N[C@@H](C)C(=O)N[C@@H](CCCNC(=N)N)C(=O)N[C@@H](C)C(=O)N[C@@H](CCCCN)C(=O)N[C@@H](Cc1c[nH]c2ccccc12)C(=O)N[C@H](C(=O)N[C@@H](Cc1ccc(OP(=O)(O)O)cc1)C(=O)N[C@@H](CO)C(=O)N1CCC[C@H]1C(=O)N[C@@H](CC(C)C)C(=O)N[C@@H](Cc1c[nH]cn1)C(=O)N[C@@H](Cc1ccc(O)cc1)C(=O)N[C@@H](CO)C(=O)N[C@@H](C)C(=O)N[C@@H](CCCNC(=N)N)C(=O)O)C(C)C)[C@@H](C)CC)[C@@H](C)O [β3 chimera F730A] (H-KKLLITIHDRKEFAKAEEERARAKWV[pY]SPLHYSAR-OH; N-terminus and C-terminus assumed),perturbation of contact residues in the MP region,talin F3,undetectable
CC[C@H](C)[C@H](NC(=O)[C@H](CC(C)C)NC(=O)[C@H](CC(C)C)NC(=O)[C@H](CCCCN)NC(=O)[C@@H](N)CCCCN)C(=O)N[C@H](C(=O)N[C@H](C(=O)N[C@@H](Cc1c[nH]cn1)C(=O)N[C@@H](CC(=O)O)C(=O)N[C@@H](CCCNC(=N)N)C(=O)N[C@@H](CCCCN)C(=O)N[C@@H](CCC(=O)O)C(=O)N[C@@H](Cc1ccccc1)C(=O)N[C@@H](C)C(=O)N[C@@H](CCCCN)C(=O)N[C@@H](Cc1ccccc1)C(=O)N[C@@H](CCC(=O)O)C(=O)N[C@@H](CCC(=O)O)C(=O)N[C@@H](CCC(=O)O)C(=O)N[C@@H](CCCNC(=N)N)C(=O)N[C@@H](C)C(=O)N[C@@H](CCCNC(=N)N)C(=O)N[C@@H](C)C(=O)N[C@@H](CCCCN)C(=O)N[C@@H](Cc1c[nH]c2ccccc12)C(=O)N[C@H](C(=O)N[C@@H](Cc1ccc(OP(=O)(O)O)cc1)C(=O)N[C@@H](CO)C(=O)N1CCC[C@H]1C(=O)N[C@@H](CC(C)C)C(=O)N[C@@H](Cc1c[nH]cn1)C(=O)N[C@@H](Cc1ccc(O)cc1)C(=O)N[C@@H](CO)C(=O)N[C@@H](C)C(=O)N[C@@H](CCCNC(=N)N)C(=O)O)C(C)C)[C@@H](C)CC)[C@@H](C)O [β3 chimera] (H-KKLLITIHDRKEFAKFEEERARAKWV[pY]SPLHYSAR-OH; N-terminus and C-terminus assumed),binding to talin (NMR),talin F3; 25° C.,"bind to talin and form a tight, highly soluble 1:1 complex"
CC[C@H](C)[C@H](NC(=O)[C@H](CC(C)C)NC(=O)[C@H](CC(C)C)NC(=O)[C@H](CCCCN)NC(=O)[C@@H](N)CCCCN)C(=O)N[C@H](C(=O)N[C@H](C(=O)N[C@@H](Cc1c[nH]cn1)C(=O)N[C@@H](CC(=O)O)C(=O)N[C@@H](CCCNC(=N)N)C(=O)N[C@@H](CCCCN)C(=O)N[C@@H](CCC(=O)O)C(=O)N[C@@H](C)C(=O)N[C@@H](C)C(=O)N[C@@H](CCCCN)C(=O)N[C@@H](Cc1ccccc1)C(=O)N[C@@H](CCC(=O)O)C(=O)N[C@@H](CCC(=O)O)C(=O)N[C@@H](CCC(=O)O)C(=O)N[C@@H](CCCNC(=N)N)C(=O)N[C@@H](C)C(=O)N[C@@H](CCCNC(=N)N)C(=O)N[C@@H](C)C(=O)N[C@@H](CCCCN)C(=O)N[C@@H](Cc1c[nH]c2ccccc12)C(=O)N[C@H](C(=O)N[C@@H](Cc1ccc(OP(=O)(O)O)cc1)C(=O)N[C@@H](CO)C(=O)N1CCC[C@H]1C(=O)N[C@@H](CC(C)C)C(=O)N[C@@H](Cc1c[nH]cn1)C(=O)N[C@@H](Cc1ccc(O)cc1)C(=O)N[C@@H](CO)C(=O)N[C@@H](C)C(=O)N[C@@H](CCCNC(=N)N)C(=O)O)C(C)C)[C@@H](C)CC)[C@@H](C)O [β3 chimera F727A] (H-KKLLITIHDRKEAAKFEEERARAKWV[pY]SPLHYSAR-OH; N-terminus and C-terminus assumed),perturbation of contact residues in the MP region,talin F3,markedly reduced
KLLITIHDRKEFAKFEEERARAKWDTANNPLYKEATSTFTNITYRGT [full-length β3 tail],solubility,[1],limited solubility
B1,perturbation of contact residues in the MP region,β3/PIPKIγ chimera,markedly reduced
B2,perturbation of contact residues in the MP region,β3/PIPKIγ chimera,undetectable
B3,reduction of affinity for the β3 chimeric peptide,Talin F3 W359A,~1000 fold

# — patent US8530621B2, “Combined preparation of a thiazide diuretic and a loop diuretic” (The Regents of the University of California, priority 2007, dated 2013)
